Assay results reported in patent publication US20070186301A1, “Mutant BDNF gene introducing knockin mouse” (NATIONAL INSTITUTE OF ADVANCED INDUSTRIAL SCIENCE AND …, priority 2006, published 2007).
“Also recorded” adds a separate entry of the source.

B1: BDNF-ML: non-cleavable human proBDNF derivative protein with R125M and R127L, SEQ ID NO:2 (protein)
chain: MTILFLTMVISYFGCMKAAPMKEANIRGQGGLAYPGVRTHGTLESVNGPKAGSRGLTSLADTFEHVIEELLDEDQKVRPNEENNKDADLYTSRVMLSSQVPLEPPLLFLLEEYKNYLDAANMSMMVLRHSDPARRGELSVCDSISEWVTAADKKTAVDMSGGTVTVLEKVPVSKGQLKQYFYETKCNPMGYTKEGCRGIDKRHWNSQCRTTQSYVRALTMDSKKRIGWRFIRIDTSCVCTLTIKRGR
modifications: Non-cleavable human proBDNF mutant

What was measured:
[1] = tested on: mutant BDNF gene-knockin mice; experiment: Open field (circular field) quantity of activity after etizolam, mutant mice; assay type: in vivo, mouse; conditions: mutant mice aged 4 to 5 weeks; etizolam solution 0.5 mg/kg intraperitoneally; measured from 5 minutes after administration; p<0.001
Method: (§1) The abnormal behavior in the mutant BDNF gene-knockin mouse was quantitatively analyzed. An emotional change of the mouse is reflected to the quantity of activity and a behavioral pattern of the mouse when the mouse is placed in a novel environment. The mouse was placed in the novel environment which was an inexperienced circular field (a diameter of 50 cm and a wall height of 40 cm in the field) for 25 to 30 minutes, and the quantity of activity in the meantime was compared between the wild type homozygous mice (wild) and the knockin homozygous mice (mutants). The mouse was placed 30 minutes before the experiment in a room in which the circular field had been disposed, and placed calmly in the circular field using a paper box. The activity of the mouse in the circular field was measured by recording using DV-Track video tracking system supplied from Muromachi Kikai.
(§2) Etizolam is a short term action type GABA, a neurotransmission accelerator (reference: Elder C. A. et al.: Drug Metab. Dispos., vol. 23, 776, 1995). […] A protocol was comprising (I) measuring the total quantity of activity in the mouse for 30 minutes after being placed in the open field, (II) intraperitoneally administering PBS or the etizolam solution (0.5 mg/kg) and (III) returning the mouse in the open field after 5 minutes and measuring the quantity of activity for 30 minutes in the mouse. […]

wild type mice = experiment: Open field (circular field) quantity of activity after etizolam, wild type mice; assay type: in vivo, mouse; conditions: wild type mice aged 4 to 5 weeks; etizolam solution 0.5 mg/kg intraperitoneally; measured from 5 minutes after administration; p<0.05
Method: as §1, §2

cholinergic nerve cells = experiment: Harmful action of non-cleavable proBDNF derivative on cholinergic nerve cells; assay type: cell-based
[2] = tested on: cerebellar granular nerve cells; experiment: Harmful action of non-cleavable proBDNF derivative on cerebellar granular nerve cells; assay type: cell-based

Row | Molecule | effect on abnormal behavior (total behavioral distance / quantity of activity for 30 minutes in the open field) [1] | effect on quantity of activity for 30 minutes in the open field (wild type mice) | action on fibers in cholinergic nerve cells (cholinergic nerve cells) | action on cell death of cerebellar granular nerve cells [2]
1 | CCc1cc2c(s1)-n1c(C)nnc1CN=C2c1ccccc1Cl [etizolam] | inhibitory effect; also recorded: remarkably inhibited | certainly effective |  | 
2 | B1 |  |  | facilitation of dropout of fibers | facilitation of cell death
